Our source for the IC50 values is ChEMBL document CHEMBL1149838, “Usimines A-C, bioactive usnic acid derivatives from the Antarctic lichen Stereocaulon alpinum” (J Nat Prod, 2008).

The target of this assay is T1, Tyrosine-protein phosphatase non-receptor type 1 (Homo sapiens, UniProt P18031).
T1 sequence (P18031 whole entry): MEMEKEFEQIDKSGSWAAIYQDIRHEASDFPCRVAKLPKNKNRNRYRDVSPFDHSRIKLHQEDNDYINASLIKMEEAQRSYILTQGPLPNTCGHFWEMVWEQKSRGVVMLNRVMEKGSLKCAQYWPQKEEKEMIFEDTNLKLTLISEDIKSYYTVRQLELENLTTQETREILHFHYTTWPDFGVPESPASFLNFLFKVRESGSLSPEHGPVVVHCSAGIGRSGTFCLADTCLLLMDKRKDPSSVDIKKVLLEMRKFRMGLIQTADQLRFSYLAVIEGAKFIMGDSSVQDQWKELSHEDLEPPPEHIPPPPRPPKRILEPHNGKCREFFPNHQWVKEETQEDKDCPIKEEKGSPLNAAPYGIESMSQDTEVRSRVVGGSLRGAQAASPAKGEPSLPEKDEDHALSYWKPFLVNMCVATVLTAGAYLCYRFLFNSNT
The assay is described as follows: Inhibition of human recombinant PTP1B.
The term IC50 denotes the concentration needed to halve the response being measured. As for `CC(=O)C1=C(O)C=C2Oc3c(C(C)=O)c(O)c(C)c(O)c3[C@@]2(C)C1=O` [(+)-USNIC ACID], the IC50 was found to be 16.4 µM.

As to `CC(=O)c1c(O)c(C)c(O)c2c1OC1=CC(O)=C(/C(C)=N/[C@@H](CCC(=O)O)C(=O)O)C(=O)[C@@]12C` [USIMINE B], the IC50 was determined as 27.7 µM.

On to `COC(=O)CC[C@H](/N=C(\C)C1=C(O)C=C2Oc3c(C(C)=O)c(O)c(C)c(O)c3[C@@]2(C)C1=O)C(=O)O` [USIMINE A], for which the IC50 is 15 µM.

Turning to `CC(=O)c1c(O)c(C)c(O)c2c1OC1=CC(O)=C(/C(C)=N\[C@@H](CCC(=O)O)C(=O)O)C(=O)[C@@]12C` [USIMINE C], the concentration for half-maximal inhibition (IC50) turned out to be 23.2 µM.
